Reference: patent US20090143441A1, “Combination therapies of Thiazolidinedione analogues” (priority 2006, published 2009)
Entries after “also recorded” stand apart in the source; their conditions may differ.

Experiments:
PPARγ = target: T1, PPARγ (Homo sapiens, UniProt P37231); assay: Commercial PPARγ binding assay (Invitrogen, PPAR-LBD/Fluormone PPAR Green complex); details: for PPARγ ligand binding (Fluormone displacement signal) / Activation of PPARγ: average (SEM) of three experiments in quadruplicate; for Binding to PPARγ (in words): summary of FIG. 1 and Table B
T1 construct: purchased Invitrogen Corporation, Carlsbad, Calif
T1 sequence (P37231 238-503 limits assumed): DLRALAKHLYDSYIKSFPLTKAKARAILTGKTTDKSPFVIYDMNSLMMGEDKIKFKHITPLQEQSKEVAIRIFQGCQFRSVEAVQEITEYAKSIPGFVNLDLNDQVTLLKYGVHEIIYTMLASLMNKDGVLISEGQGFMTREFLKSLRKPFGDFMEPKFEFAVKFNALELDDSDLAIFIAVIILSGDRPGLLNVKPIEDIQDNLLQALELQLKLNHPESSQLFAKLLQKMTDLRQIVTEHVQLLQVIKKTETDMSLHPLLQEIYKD
Procedure: The ability of several exemplary compounds of the present invention, shown in Table A, to bind to PPARγ was measured using a commercial binding assay (Invitrogen Corporation, Carlsbad, Calif.) that measures the test compounds ability to bind with PPAR-LBD/Fluormone PPAR Green complex. These assays were performed on three occasions with each assay using four separate wells (quadruplicate) at each concentration of tested compound. The data in Table B are average and SEM of three experiments, each of which were performed in quadruplicate on separate days. […] Compounds were added at the concentrations shown, which range from 0.1-100 micromolar.

[1] = test system: normal male Sprague-Dawley rats with Medrol-induced hypertension; assay: Prevention of Medrol-induced hypertension, mean blood pressure by direct femoral arterial cannulation; format: in vivo; details: for Mean blood pressure, Fasted: after a 6 hour fast on day 8; for Mean blood pressure, Fasted / Mean blood pressure, Fed: daily dosing, Compound 1 40 mg/kg/day, Medrol 20 mg/kg/day, N=9, * p<0.05 less than Medrol-treated rats; for Mean blood pressure, Fed: fed conditions on day 7
Procedure: Hypertension was induced in normal male Sprague-Dawley rats by daily dosing with the glucocorticoid methylprednisolone (Medrol) for 8 days. Separate groups of rats received the vehicle (1% carboxymethylcellulose/0.01% Tween 20) by oral gavage and some of both the vehicle-treated and Medrol-treated rats also received daily doses of compound 1 as shown in Table C. Mean blood pressure was measured by direct femoral arterial cannulation under fed conditions on day 7 and after a 6 hour fast on day 8. The data are mean and (SEM) mean blood pressure obtained by direct cannulation. N=9; * p<0.05 less than blood pressure in Medrol-treated rats.

Structure (SMILES) | PPARγ ligand binding (Fluormone displacement signal) (PPARγ; compound at 1 μM) | Activation of PPARγ (PPARγ; compound at 3 μM) | Activation of PPARγ (PPARγ; compound at 10 μM) | Activation of PPARγ (PPARγ; compound at 50 μM) | Activation of PPARγ (PPARγ; compound at 100 μM) | Activation of PPARγ (PPARγ; compound at .1 μM) | PPARγ ligand binding (Fluormone displacement signal) (PPARγ; compound at .3 μM) | Binding to PPARγ (in words) (PPARγ) | Mean blood pressure, Fasted [1] | Mean blood pressure, Fed [1] | Antihypertensive action (in words) ([1]; hypertension generated by treatment with a glucocorticoid, FIG. 2 and Table C) | PPARγ ligand binding (Fluormone displacement signal) (PPARγ; compound at 10 μM) | PPARγ ligand binding (Fluormone displacement signal) (PPARγ; compound at 50 μM) | PPARγ ligand binding (Fluormone displacement signal) (PPARγ; compound at 100 μM) | PPARγ ligand binding (Fluormone displacement signal) (PPARγ; compound at .1 μM) | PPARγ ligand binding (Fluormone displacement signal) (PPARγ; compound at 3 μM) | Activation of PPARγ (PPARγ; compound at .3 μM) | Activation of PPARγ (PPARγ; compound at 1 μM)
CCc1ccc(C(=O)COc2ccc(CC3SC(=O)NC3=O)cc2)nc1 (centres unmarked) [Compound 1] | 223 (12) | 228 (6) | 207 (13) | 174 (28) | 170 (35) | 227 (1) | 232 (8) | particularly poor binders to PPARγ | 108 | 108 | unexpected antihypertensive action; also recorded: significantly lowered blood pressure |  |  |  |  |  |  | 
CCc1ccc([C@@H](O)COc2ccc(CC3SC(=O)NC3=O)cc2)nc1 (some centres unmarked) [Compound 2] | 238 (12) | 236 (13) |  |  |  |  | 233 (15) | particularly poor binders to PPARγ; also recorded: PPARγ-sparing compound |  |  |  | 223 (11) | 162 (8) | 136 (11) | 231 (15) |  |  | 
CCc1ccc(C(=CC(=O)OC)COc2ccc(CC3SC(=O)NC3=O)cc2)nc1 (centres unmarked) [Compound 3] | 203 (15) | 185 (17) | 134 (1) | 88 (6) |  | 226 (17) | 221 (10) |  |  |  |  |  |  | 77 (7) |  |  |  | 
CCc1ccc(CCOc2ccc(CC3(C)SC(=O)NC3=O)cc2)nc1 (centres unmarked) [Compound 4] | 234 (11) |  |  | 122 (21) |  | 236 (13) |  |  |  |  |  | 200 (8) |  | 91 (11) |  | 224 (15) | 230 (14) | 
CCc1ccc(C(O)COc2ccc(CC3(C)SC(=O)NC3=O)cc2)nc1 (centres unmarked) [Compound 5] | 228 (9) |  |  |  |  |  | 230 (10) |  |  |  |  | 212 (11) | 132 (12) | 106 (7) | 235 (8) | 226 (8) |  | 
CCc1ccc(CCOc2ccc(CC3(C)SC(=O)NC3=O)cc2)nc1 (centres unmarked) [Compound 6] | 233 (11) |  |  | 126 (17) |  |  | 246 (9) |  |  |  |  | 198 (10) |  | 99 (12) | 246 (7) | 223 (7) |  | 
CCc1ccc(CCOc2ccc(CC3(C)SC(=O)NC3=O)cc2)nc1 (centres unmarked) [Compound 7] |  |  |  |  |  |  |  |  |  |  |  | 210 (9) | 144 (15) | 105 (10) | 249 (9) | 237 (7) | 246 (5) | 248 (13)
CCc1ccc([C@@H](O)COc2ccc(CC3(C)SC(=O)NC3=O)cc2)nc1 (some centres unmarked) [Compound 8] |  |  |  |  | 186 (16) | 237 (6) |  |  |  |  |  | 233 (7) | 199 (15) |  |  | 241 (10) | 243 (5) | 239 (5)
CCc1ccc([C@H](O)COc2ccc(CC3(C)SC(=O)NC3=O)cc2)nc1 (some centres unmarked) [Compound 9] |  |  |  | 189 (19) | 164 (20) | 237 (5) |  |  |  |  |  | 234 (12) |  |  |  | 233 (9) | 237 (4) | 239 (13)
CCc1ccc(C(=O)COc2ccc(CC3(C)SC(=O)NC3=O)cc2)nc1 (centres unmarked) [Compound 10] |  |  | 219 (5) |  |  | 245 (2) |  |  |  |  |  |  | 126 (3) | 93 (3) |  | 234 (3) | 239 (2) | 240 (2)
CCc1ccc(C(=CC(=O)OC)COc2ccc(CC3SC(=O)NC3=O)cc2)nc1 (centres unmarked) [Compound 11] | 232 (12) |  |  | 128 (30) |  |  | 227 (9) |  |  |  |  | 165 (10) |  | 78 (3) | 230 (12) | 229 (10) |  | 
CCc1ccc(C(COc2ccc(CC3SC(=O)NC3=O)cc2)CC(=O)OC)nc1 (centres unmarked) [Compound 12] |  |  |  | 80 (2) |  |  |  |  |  |  |  | 112 (12) |  | 85 (3) | 243 (3) | 155 (8) | 222 (4) | 198 (6)
CCc1ccc(C(=CCO)COc2ccc(CC3SC(=O)NC3=O)cc2)nc1 (centres unmarked) [Compound 13] |  | 230 (13) |  | 148 (23) | 108 (5) |  | 243 (10) |  |  |  |  | 204 (12) |  |  | 244 (9) |  |  | 229 (20)
C[C@H]1C[C@@H]2[C@H]([C@@H](O)C[C@@]3(C)[C@H]2CC[C@]3(O)C(=O)CO)[C@@]2(C)C=CC(=O)C=C12 [Medrol, methylprednisolone, reference compound] |  |  |  |  |  |  |  |  | 122 | 123 |  |  |  |  |  |  |  | 
